According to US7090846B2 (priority 1999, dated 2006):

Experiments:
[1] = system: tumor cell cultures (P388, MCF-7, PC3); details: in vitro; for comparison among the conjugates: inhibition on the cell proliferation: ranking among tested conjugates; for inhibition on the cell proliferation: serial dilutions, vs untreated control
From the text: (§1) Cell Lines Used in the Experiments: • P388 mouse lymphocytic leukemia cell line, originated from Arthur D. Little Inc., Cambridge, Mass., USA, in vitro established in the National Institute of Oncology, Budapest, Hungary (Cancer Treat. Rep. 1986; 70: 279–284); • MCF-7 humane breast cancer cell line, originated from American Type Culture Collection; • PC3 humane prostate cancer cell line, originated from American Type Culture Collection;
Sulforodamine B (SRB) assay: approximately one to two thousand cells were put into each well of the special, small plastic tray (micro-well-plates). The cells were incubated in adequate medium and conditions and after adhering to the surface, were treated with serial dilutions of the different polycation bioconjugates, prepared according to the invention. At the end of the experiment the cells were fixed, stained with SRB, and the optical density, which is in direct proportion to the cell proliferation, was read in a CLS 962 ELISA microplate reader. Relative inhibition of proliferation was calculated by taking the control values as 100 per cent. (Cancer Detection and Prevention, 20(2): 146–152, 1996).
Cell counting method, with Neubauer-type chamber: in suspension cultures of exponentially growing cells, which were in adequate medium and conditions, were treated with serial dilutions of the different polycation bioconjugates, prepared according to the invention, and 24- and 48 hours following the treatment the cells were stained with tripan-blue, the treated and control cells were counted in a modified Neubauer-type hemocytometer chamber. Relative inhibition of proliferation was calculated by taking the control values as 100 per cent.

MCF-7, or PC3 cells = details: tumor cell cultures, in vitro; for comparison among the conjugates: inhibition on the colony formation: ranking among tested conjugates; for inhibition on the colony formation: serial dilutions, vs untreated control
Protocol: as §1
MCF-7, or PC3 cells were plated into petri dishes, then in adequate medium and conditions, were incubated the cells with serial dilutions of the different polycation bioconjugates, prepared according to the invention. The colonies, consisting minimum 30 cells were then counted and the obtained values of three parallel petri dishes were averaged. Relative cloning efficiency was calculated by taking the control values as 100 per cent. (Cancer Detection and Prevention, 20(2): 146–152, 1996).

[2] = system: transplantable rodent tumors (P-388 lymphoid leukemia, S-180 sarcoma); details: mouse, in vivo
From the text: The tumor growth inhibitory effect of the polycation bioconjugates was studied on the following transpalatable rodent tumors: • P-388 lymphoid leukemia cells, originated from Cambridge, Mass., USA, were transplanted i.p. and s.c. into animals: BDF1 inbred male mice, weighing 22–24 g, specified pathogen free (SPF) breedings; • S-180 sarcoma, originated from Chester Beatty I., London, were transplanted s.c. into animals: BDFI inbred male mice, weighing 22–24 g, specified pathogen free (SPF) breedings.

Row | Substance | comparison among the conjugates: inhibition on the cell proliferation [1] | inhibition on the cell proliferation [1] | comparison among the conjugates: inhibition on the colony formation (MCF-7, or PC3 cells) | inhibition on the colony formation (MCF-7, or PC3 cells) | inhibitory effect on transplantable rodent tumors (mean tumor volumes, tumor growth curves) [2]
1 | palmitoyl-poly-(ε)-L-lysine-hydrogen-bromide | most effective inhibition | dose dependent inhibition | most effective inhibition | dose dependent inhibition | significant inhibitory effect
2 | cholesterol-hemisuccinyl-poly-(ε)-L-lysine-hydrogen-bromide | – | dose dependent inhibition | – | dose dependent inhibition | significant inhibitory effect
3 | poly-(ε)-L-lysine-cisplatin-hydrogen-bromide | most effective inhibition | dose dependent inhibition | most effective inhibition | dose dependent inhibition | –
